In assay [1] the test system is H1299 cells. The assay can be described thus: Internalization of covalent peptide-peroxidase conjugates. The following applies: H1299, 0.2 μg/ml conjugate, 2 hours. The assay is classed as cell-based, human. As for the experimental part:
(§1) To evaluate more directly the penetration of the peptides, avoiding the avidin-peroxidase bias, some of the peptides in sequences SEQ ID NO: 25 to 48 were conjugated covalently with cysteine in the C-terminal position of the peptide to peroxidase. The peptides were coupled with peroxidase in the following way:
(§2) One mg of peroxidase activated with maleimide (Sigma) in 100 μl of sodium phosphate buffer, NaCl 0.15 M, EDTA 5 mM, had 1 mg of peptide added to it. After 2 hours at laboratory temperature, β-mercaptoethanol is added to a final concentration of 1.5 mM for 15 minutes. The uncoupled peptide is eliminated by centrifugation on ultrafiltration membranes (cut-off threshold=30,000 Daltons, Sartorius), followed by three washings in sodium phosphate buffer 0.1 M, pH 7.4 containing 0.15 M NaCl.
The H1299 cells are incubated for 2 hours with the conjugates at increasing concentrations of peptide-peroxidase in the culture medium, then washed with PBS. The cells are lysed and the quantity of peptide internalized is evaluated by the dosage of peroxidase in the lysate of the cells with reference to a curve established with peptide-peroxidase.
The quantity of peptide internalized (pg/10^3 cells), depending on the concentrations of conjugates in the culture medium, is shown in Table 8 below.
(§3) It appears that the higher the concentration of peptide-peroxidase conjugate in the culture medium, the more the quantity internalized increases. To compare the penetration of the conjugates by cell type, the cells from different lines were incubated with 0.2 μg/ml of peptide-peroxidase conjugate for 2 hours, and the quantity of peroxidase dosed in the lysates. Table 9 and Table 9B below give the results expressed in pg/10^3 cells. The quantity of each peptide internalized in the different lines generally varies only from single to double.

Assay [2] can be described thus: ELISA fixation of biotinylated peptides on sensitized plates. The assay is classed as binding. The following applies: read-out: avidity (Kd), quantity of peptides necessary to obtain 50% fixation, Chondroitin B; Table 5. In general terms: ELISA stands for enzyme-linked immunosorbent assay.
The test system of assay [3] is HeLa. The experiment in a line: Internalization of covalent peptide-peroxidase conjugates. The assay is classed as cell-based, human. Particulars: 2 hours. As to the method: as §1, §2, §3
A short description of assay [4]: ELISA fixation of biotinylated peptides on sensitized plates. The assay is classed as binding. Particulars: read-out: avidity (Kd), quantity of peptides necessary to obtain 50% fixation, Chondroitin A; Table 5.
Assay [5] has as its system 3T3. The assay can be described thus: Internalization of covalent peptide-peroxidase conjugates. The assay is classed as cell-based, mouse. The following applies: 2 hours. As for the experimental part:
as §1, §2, §3

A short description of assay [6]: ELISA fixation of biotinylated peptides on sensitized plates. The following applies: read-out: avidity (Kd), quantity of peptides necessary to obtain 50% fixation, Chondroitin C; Table 5. The assay is classed as binding.
Assay [7] concerns H1299 cells. The assay can be described thus: Internalization of biotinylated peptide/S-PO complexes. The assay is classed as cell-based, human. As for the experimental part:
A biotinylated/S-PO peptide or biotinylated/A-PO complex (A-PO for avidin-peroxidase) is prepared extemporaneously in two ways:
1) either in a peptide: S-PO or A-PO molar ratio of 4:1 (for example, 1.4 μg of peptide with a molecular weight of 3500 to 10 μg of S-PO; the weight of S-PO used varies depending on the peptides since their molecular weights are different).
2) or in a peptide: S-PO or A-PO molar ratio of 25:1 (for example 1.7 μg of peptide with a molecular weight of 3500 to 1 μg of S-PO).
The complexes are prepared by incubating the biotinylated peptide with S-PO or A-PO in PBS in a volume of 5 to 10 μl for 15 minutes at laboratory temperature. They are then diluted in 1 ml of complete culture medium, filtered on a 0.2 micron membrane and incubated with the cells for 4 hours. The cells are then washed three times with PBS.
To study the penetration of the complexes under a microscope, the cells are fixed as before for 15 minutes in ethanol at −20° C., they are washed with PBS, and the activity of the internalized peroxidase is shown by diaminobenzidine in the presence of H2O2. To measure the quantity of peptide/S-PO or A-PO complexes internalized, the cells are trypsinized, transferred into microtubes and counted. They are washed twice by centrifugation, then the residue is suspended in 200 μl of lysis buffer (Tris buffer, 0.1 M, pH8, 0.5% Nonidet). After 15 minutes, the peroxidase contained in the lysis buffer is dosed onto 96-well plates with ortho-dianisidine and H2O2 by comparison with a standard curve for S-PO. The reading is taken at 450 nm. The quantity contained in the different samples is expressed in picograms (pg) per 10^4 cells.
Table 7 below reports the results of evaluating the influence of SEQ ID NO: 1 on the penetration of peptides coupled to SEQ ID NO: 1 into H1299 cells, where
Concentration a: 25 peptides to one molecule of S-PO (1 μg),
Concentration b: 4 peptides to one molecule of S-PO (10 μg).

Assay [8] deals with cells. The experiment in a line: Penetration of biotinylated peptides inside cells (microscopy, S-PO coloration). The following applies: biotinylated peptides 50 to 6 μg/ml, 1-18 hours, revealed with S-PO. The assay is classed as cell-based. As for the experimental part:
The cells are cultivated in the presence of the different peptides carrying, on the N-terminal side, biotin in decreasing concentrations (50 to 6 μg/ml) in the culture medium for variable times (1-18 hours).
At the end of the culture, the cells are washed three times with PBS (0.15 M NaCl buffered with 0.01 M potassium phosphate buffer pH 7.4) then fixed 15 minutes in ethanol at −20° C. The penetration of the peptide is evaluated after incubation for 30 minutes with streptavidin conjugated with peroxidase (abbreviated S-PO for streptavidin-peroxidase). Then, the S-PO is eliminated, and the cells are washed. […] With the other peptides, positive colorations, but of variable intensity, were noted.

[9] abbreviates: Conc. a: 25 peptides to one molecule of S-PO (1 μg).
The mark [10] stands for this setting: Conc. b: 4 peptides to one molecule of S-PO (10 μg).
The mark [11] stands for this setting: peptide: S-PO complexes of 4:1, peptide concentration of 1 μg.

pKd: −log10 of the molar value. Read-outs that look alike come from different tables or passages of the source. Where no end group is shown, it is not given here. [ ]: non-standard residue; d: D form.

What is called pKd is the Kd on a negative log10 scale, so that one unit is a factor of ten.

AKTGKRKRSG [SEQ ID NO: 36]: the “Internalization of Peptide-peroxidase” value in assay [1] (Table 9) is 10.6 pg/10^3 cells; in assay [3] (Table 9, 0.2 μg/ml conjugate), 4.4 pg/10^3 cells; in assay [5] (Table 9, 0.2 μg/ml conjugate), 20.3 pg/10^3 cells. The pKd in assay [2] was 6.52; in assay [4] it was 6.54; in assay [6], 6.69.
QGKSKREKKDRVF [SEQ ID NO: 37]: the “Internalization of Peptide-peroxidase” value is reported as 4.3 pg/10^3 cells in assay [1] (Table 9); 2.5 pg/10^3 cells in assay [3] (Table 9, 0.2 μg/ml conjugate); 5.7 pg/10^3 cells in assay [5] (Table 9, 0.2 μg/ml conjugate). Besides, the negative-log Kd (pKd) was 6.76 in assay [2], 6.75 in assay [4] and 7.03 in assay [6].
Regarding “SEQ ID NO: 4: Peptide corresponding to the hypervariable area CD3 of the anti-DNA monoclonal murine antibody F4.1 (RQKYNKRAMDY; Mus musculus x Rattus norvegicus)”, the results for the S-PO internalized in assay [7] (setting [9]) and in assay [7] (setting [10]) were 2 pg/10^4 cells and 280 pg/10^4 cells, respectively. In addition, the intracellular cytochemical coloration result in assay [8] is reported as “do not give any positive intracellular cytochemical coloration”.
Regarding “SEQ ID NO: 5: Peptide containing SEQ ID NO: 1 and SEQ ID NO: 4 (VKRGLKLRQKYNKRAMDY; Homo sapiens - Mus musculus - Rattus norvegicus)”, the S-PO internalized came to 100 pg/10^4 cells in assay [7] (setting [9]) and 6250 pg/10^4 cells in assay [7] (setting [10]). Besides, in assay [8], the intracellular cytochemical coloration entry is “intense coloration”.
The matching figures for “SEQ ID NO: 6: Peptide containing part of CDR2 and CDR3 regions of monoclonal murine antibody F4.1 (TYYSDTVKGRFTRQKYNKRA; Mus musculus x Rattus norvegicus)”: 1 pg/10^4 cells, 130 pg/10^4 cells and “Faint coloration”.
The matching figures for “SEQ ID NO: 7: Peptide containing SEQ ID NO: 1 and SEQ ID NO: 6 (VKRGLKLTYYSDTVKGRFTRQYNKRA; Homo sapien - Mus musculus - Rattus norvegicus)”: 240 pg/10^4 cells, 220 pg/10^4 cells and “intense coloration”.
In the same order, the values of “SEQ ID NO: 8: Peptide corresponding to the hypervariable CD3 region of human anti-DNA monoclonal antibody RTT79 (VRRSGRVVVPAAPRNRD; listed as Homo sapiens)” are 50 pg/10^4 cells, 1310 pg/10^4 cells and “Faint coloration”.
In the case of “SEQ ID NO: 9: Peptide containing SEQ ID NO: 1 and SEQ ID NO: 8 (VKRGLKLVRRSGRVVVPAAPRNRD; listed as Homo sapiens)”, the S-PO internalized in assay [7] (setting [9]) is listed as 340 pg/10^4 cells; in assay [7] (setting [10]) it was 8280 pg/10^4 cells. In addition, in assay [8], the intracellular cytochemical coloration entry is “intense coloration”.
On to “SEQ ID NO: 11: SEQ ID NO: 1 and CDR3 of the human anti-DNA monoclonal antibody RT72 (VKRGLKLGYYDFWSGPGKN; listed as Homo sapiens)”, for which the intracellular cytochemical coloration result in assay [8] is “do not give any positive intracellular cytochemical coloration”.
Consider “SEQ ID NO: 12: Peptide containing the NLS sequence of cells 3T3 and SEQ ID NO: 6 (NVKKPKLTYYSDTVKGRFTRQKYNKRA; Mus musculus x Rattus norvegicus)”, for which the intracellular cytochemical coloration entry in assay [8] is “do not give any positive intracellular cytochemical coloration”.
Substance “SEQ ID NO: 17: Peptide reacting with heparin derived from human lipoprotein E (LRKRLLRD; listed as Homo sapiens)” showed a S-PO internalized in assay [7] (setting [11]) of 3 pg/10^4 cells. For the same substance, the intracellular cytochemical coloration entry in assay [8] is given as “do not give any positive intracellular cytochemical coloration”.
In the same order, the values of “SEQ ID NO: 18: Peptide reacting with heparin derived from the amino acid sequence of agrine (KSRK; listed as Homo sapiens)” are 3 pg/10^4 cells and “do not give any positive intracellular cytochemical coloration”.
In the same order, the values of “SEQ ID NO: 19: Dimer of SEQ ID NO: 18 (KSRKKSRK; not fully specified; listed as Homo sapiens)” are 167 pg/10^4 cells and “Faint coloration”.
Consider “SEQ ID NO: 27: SEQ ID NO: 26 in which the amino acids are in configuration D ([dS][dE][dR][dK][dK][dR][dR][dR][dE][dS][dR][dK][dK][dR][dR][dR][dE][dS]; listed as Homo sapiens)”, for which the Internalization of Peptide-peroxidase in assay [1] (Table 9B) is listed as 59.1 pg/10^3 cells; in assay [3] (Table 9B, 0.2 μg/ml conjugate), 4.1 pg/10^3 cells; in assay [5] (Table 9B, 0.2 μg/ml conjugate), 63.7 pg/10^3 cells.
In the same order, the values of “SEQ ID NO: 31: homolog of SEQ ID NO: 30 with amino acid sequence in the reverse position (b233 says SEQ ID NO: 12) (PDRKKGLKGKKKRKKG; (1)..(16) The amino acids are in front-back position; listed as Homo sapiens)” are 70.6 pg/10^3 cells, 8.7 pg/10^3 cells and 75.9 pg/10^3 cells.
The matching figures for “SEQ ID NO: 32: SEQ ID NO: 30 in which the amino acids are in configuration D (G[dK][dR][dK][dK][dK]G[dK][dL]G[dK][dK][dR][dD]; listed as Homo sapiens)”: 56.7 pg/10^3 cells, 7.7 pg/10^3 cells and 50 pg/10^3 cells.
In assay [7] (setting [11]), “VKRGLKL (listed as Homo sapiens) [SEQ ID NO: 1, Peptide reacting with heparin from human lipoprotein B]” yielded a S-PO internalized of 3 pg/10^4 cells. Also, the intracellular cytochemical coloration entry in assay [8] is reported as “do not give any positive intracellular cytochemical coloration”.

Values taken from patent publication US8003595B2, “Amino acid sequences facilitating penetration of a substance of interest into cells and/or cell nuclei” (Cellectis, priority 2000, dated 2011).
